Some test systems named below: BT-549 breast; EKVX NSCLC; LOX IMVI melanoma; NCI-H460 lung; SF-268 CNS; SK-MEL-5 melanoma; SN12C renal; TK-10 renal.
Holding throughout (assay): NCI tumour cell line growth inhibition, 48 h

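Cultured in 96-well plates, cells were exposed to test compound for 48 hours across five concentrations. GI50: concentration for 50% inhibition of growth. TGI: concentration producing complete growth inhibition.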

For the compound `CCCCCCCCn1ccc2cc(NC(=O)Cn3cc(CN4CCCCC4)nn3)ccc21`, the GI50 in the test with BT-549 breast was 10.2 µM; with EKVX NSCLC, 2.89 µM; with LOX IMVI melanoma it was 1.63 µM; in the test on NCI-H460 lung, 1.89 µM; in the test on SF-268 CNS it was 2.05 µM; with SK-MEL-5 melanoma, 1.77 µM. In addition, the values for the GI50 with SN12C renal and in the test on TK-10 renal were 1.8 µM and 2.44 µM, respectively. The TGI with BT-549 breast was found to be 23.2 µM; in the test with EKVX NSCLC, 13.9 µM; in the test on LOX IMVI melanoma it was 3.17 µM; in the test on NCI-H460 lung it was 3.67 µM; in the test with SF-268 CNS, 4.51 µM; with SK-MEL-5 melanoma, 3.16 µM. The TGI with SN12C renal came out at 3.75 µM; in the test on TK-10 renal, 6.63 µM.
Turning to `O=C1OCC2=C1C(c1ccc(Cl)c(Cl)c1)c1cc3c(cc1N2CCO)CCC3` (stereo not drawn), the GI50 in the test with BT-549 breast is 1.35 µM; with EKVX NSCLC, 0.435 µM; with LOX IMVI melanoma, 0.303 µM; in the test on NCI-H460 lung it was 0.186 µM; in the test on SF-268 CNS, 0.343 µM; with SK-MEL-5 melanoma, 0.181 µM. For the same compound, the GI50 in the test with SN12C renal was 0.398 µM; in the test on TK-10 renal it was 0.312 µM. For the same compound, the TGI in the test with BT-549 breast was 10.9 µM; in the test on EKVX NSCLC it was 15.6 µM; in the test on LOX IMVI melanoma, 10.3 µM; in the test on NCI-H460 lung, 6.03 µM; with SF-268 CNS it was 9.34 µM; in the test with SK-MEL-5 melanoma, 7.22 µM. Further, the figures for the TGI in the test with SN12C renal and in the test on TK-10 renal were 8.91 µM and 13.2 µM, respectively.
Consider `CCCCCCCCCCCCOC1C(CNC(=O)C2OC3OC(C)(C)OC3C2NC(=O)Nc2ccc(CC(=O)NC(Cc3ccccc3)C(=O)O)cc2)OC2OC(C)(C)OC21` (stereo not drawn), for which the GI50 in the test on BT-549 breast is 22.7 µM; in the test on EKVX NSCLC, above 25 µM; in the test with LOX IMVI melanoma it was above 25 µM; in the test on NCI-H460 lung it was above 25 µM; in the test with SF-268 CNS it was above 25 µM; in the test with SK-MEL-5 melanoma, above 25 µM. The GI50 in the test with SN12C renal and with TK-10 renal was above 25 µM in each case. In addition, the TGI with BT-549 breast, in the test with EKVX NSCLC, in the test with LOX IMVI melanoma, with NCI-H460 lung, in the test on SF-268 CNS and with SK-MEL-5 melanoma was above 25 µM in each case. The TGI with SN12C renal and in the test on TK-10 renal was above 25 µM throughout.
Consider `NC(N)=N/N=C/c1ccc(-c2ccc(-c3cc(Cl)cc(Cl)c3)s2)cc1`, for which the GI50 in the test with BT-549 breast is 2.37 µM; in the test with EKVX NSCLC, 1.84 µM; in the test with LOX IMVI melanoma, 1.65 µM; in the test on NCI-H460 lung it was 1.7 µM; in the test with SF-268 CNS it was 1.85 µM; in the test with SK-MEL-5 melanoma, 2.79 µM. Besides, the GI50 was 1.76 µM in the test on SN12C renal and 1.71 µM in the test with TK-10 renal. Besides, the TGI in the test with BT-549 breast was 7.02 µM; with EKVX NSCLC, 4.03 µM; with LOX IMVI melanoma, 3.42 µM; in the test with NCI-H460 lung, 3.46 µM; with SF-268 CNS, 4.22 µM; with SK-MEL-5 melanoma, 7.85 µM. Also, the values for the TGI in the test with SN12C renal and in the test with TK-10 renal were 3.48 µM and 3.54 µM, respectively.
On to `CN(Cc1cc(Cl)cc(Cl)c1O)Cc1c(O)ccc2ccccc12`, for which the TGI with BT-549 breast came out at 32 µM; in the test with EKVX NSCLC, 46.4 µM; with LOX IMVI melanoma it was 32.8 µM; in the test on NCI-H460 lung, 35.1 µM; with SF-268 CNS, 28.2 µM; in the test on SK-MEL-5 melanoma, 32 µM. Besides, the TGI turned out to be 43.7 µM in the test with SN12C renal and 31.1 µM in the test on TK-10 renal.
On to `COc1ccc(-n2ccnc2-c2cc(OC)c(OC)c(OC)c2)cc1`, for which the GI50 is 5.03 µM in the test with BT-549 breast; 34 µM in the test with EKVX NSCLC; 7.99 µM in the test on LOX IMVI melanoma; 2.37 µM in the test on NCI-H460 lung; 8.69 µM in the test with SF-268 CNS; 1.91 µM with SK-MEL-5 melanoma. Moreover, the GI50 in the test on SN12C renal is 6.24 µM; in the test on TK-10 renal, 4.19 µM. For the same compound, the TGI is above 100 µM in the test on BT-549 breast; above 100 µM in the test on EKVX NSCLC; above 100 µM with LOX IMVI melanoma; above 100 µM in the test on NCI-H460 lung; above 100 µM with SF-268 CNS; 11.1 µM in the test on SK-MEL-5 melanoma. Further, the TGI in the test on SN12C renal is above 100 µM; with TK-10 renal, 85 µM.
Turning to `O=C(Nc1ccccc1)c1cc(S(=O)(=O)Nc2nc3ccccc3o2)c(SCc2ccccc2)cc1Cl`, the GI50 was 19 µM in the test on BT-549 breast; 15.3 µM in the test on EKVX NSCLC; 20 µM in the test on LOX IMVI melanoma; 20.8 µM in the test with NCI-H460 lung; 15.4 µM with SF-268 CNS; 14.1 µM in the test on SK-MEL-5 melanoma. Also, the GI50 with SN12C renal is 20.3 µM; with TK-10 renal it was 13.9 µM. The TGI with BT-549 breast was found to be 40.6 µM; with EKVX NSCLC it was 31.3 µM; with LOX IMVI melanoma it was 40.3 µM; in the test on NCI-H460 lung, 77 µM; with SF-268 CNS, 41.4 µM; with SK-MEL-5 melanoma, 28 µM. Besides, the figures for the TGI in the test with SN12C renal and in the test on TK-10 renal were 46.2 µM and 28.2 µM, respectively.
On to `CC(=O)N1N=C2/C(=C/c3ccc(Cl)cc3)CC(C)CC2C1c1ccc(Cl)cc1` (stereo not drawn), for which the GI50 with BT-549 breast was 17 µM; in the test with EKVX NSCLC, 21.5 µM; in the test on LOX IMVI melanoma it was 18.1 µM; in the test on NCI-H460 lung it was 18.5 µM; in the test on SF-268 CNS it was 21.5 µM; with SK-MEL-5 melanoma, 12.2 µM. Besides, the figures for the GI50 in the test with SN12C renal and with TK-10 renal were 19.9 µM and 37.2 µM, respectively. For the same compound, the TGI with BT-549 breast came to 34.2 µM; in the test with EKVX NSCLC, 92.7 µM; in the test with LOX IMVI melanoma, 34.6 µM; with NCI-H460 lung, 41.8 µM; in the test on SF-268 CNS it was 73.4 µM; in the test with SK-MEL-5 melanoma, 25 µM. The TGI in the test with SN12C renal is 40.4 µM; in the test on TK-10 renal, above 100 µM.
Take `CC(C)(C)CC(N)=O`: the TGI in the test with BT-549 breast, in the test on EKVX NSCLC, in the test with LOX IMVI melanoma, in the test with NCI-H460 lung, in the test with SF-268 CNS and with SK-MEL-5 melanoma was above 100 µM each time. The TGI in the test on SN12C renal and in the test on TK-10 renal was above 100 µM in each case.

These data come from PubChem BioAssay (NCI).
